From ChEMBL document CHEMBL4613212, “Insights of synthetic analogues of anti-leprosy agents” (Bioorg Med Chem, 2019)
≈ marks a conversion by molar mass, not a printed value.

Experiments:
[1] = Plasma concentration in rifampin-susceptible Mycobacterium leprae infected in BALB/c mouse at 6 mg/kg administered with food daily for 1 week by high-pressure liquid chromatography analysis; type: ADME, organism-based; details: po
[2] = Plasma concentration in rifampin-susceptible Mycobacterium leprae infected in BALB/c mouse at 6 mg/kg administered with food daily for 2 weeks by high-pressure liquid chromatography analysis; type: ADME, organism-based; details: po
[3] = Plasma concentration in rifampin-susceptible Mycobacterium leprae infected in BALB/c mouse at 6 mg/kg administered with food daily for 4 weeks by high-pressure liquid chromatography analysis; type: ADME, organism-based; details: po
Mycobacterium leprae [4] = experiment: Anti-leprotic activity against rifampicin-susceptible Mycobacterium leprae primary cultures at 4 weeks assessed as [3H]thymidine uptake per 5 times 10^7 cells at 0.05 mg/L incubated for 24 hrs (reference value: 1.05 +/- 0.16 pmol); type: functional
Mycobacterium leprae [5] = experiment: Anti-leprotic activity against rifampicin-susceptible Mycobacterium leprae primary cultures at 4 weeks assessed as [3H]thymidine uptake per 5 times 10^7 cells at 0.1 mg/L incubated for 24 hrs (reference value: 1.05 +/- 0.16 pmol); type: functional
Mycobacterium leprae [6] = experiment: Anti-leprotic activity against rifampicin-susceptible Mycobacterium leprae subcultures at 4 weeks assessed as [3H]thymidine uptake per 5 times 10^7 cells at 0.1 mg/L incubated for 24 hrs (reference value: 1.41 +/- 0.20 pmol); type: functional
Mycobacterium leprae [7] = experiment: Anti-leprotic activity against rifampicin-susceptible Mycobacterium leprae primary cultures at 4 weeks assessed as [3H]thymidine uptake per 5 times 10^7 cells at 0.025 mg/L incubated for 24 hrs (reference value: 1.05 +/- 0.16 pmol); type: functional
Mycobacterium leprae [8] = experiment: Anti-leprotic activity against rifampicin-susceptible Mycobacterium leprae subcultures at 4 weeks assessed as ATP level per 10^7 cells at 0.05 mg/L measured by bioluminescence assay (reference value: 425 +/- 64 pg); type: functional
Mycobacterium leprae [9] = experiment: Anti-leprotic activity against rifampicin-susceptible Mycobacterium leprae primary cultures at 4 weeks assessed as ATP level per 10^7 cells at 0.2 mg/L measured by bioluminescence assay (reference value: 332 +/- 46 pg); type: functional
Mycobacterium leprae [10] = experiment: Anti-leprotic activity against rifampicin-susceptible Mycobacterium leprae primary cultures at 4 weeks assessed as ATP level per 10^7 cells at 0.025 mg/L measured by bioluminescence assay (reference value: 332 +/- 46 pg); type: functional
Mycobacterium leprae [11] = experiment: Anti-leprotic activity against rifampicin-susceptible Mycobacterium leprae subcultures at 4 weeks assessed as [3H]thymidine uptake per 5 times 10^7 cells at 0.2 mg/L incubated for 24 hrs (reference value: 1.41 +/- 0.20 pmol); type: functional
Mycobacterium leprae [12] = experiment: Anti-leprotic activity against rifampicin-susceptible Mycobacterium leprae subcultures at 4 weeks assessed as ATP level per 10^7 cells at 0.2 mg/L measured by bioluminescence assay (reference value: 425 +/- 64 pg); type: functional
Mycobacterium leprae [13] = experiment: Anti-leprotic activity against rifampicin-susceptible Mycobacterium leprae primary cultures at 4 weeks assessed as ATP level per 10^7 cells at 0.1 mg/L measured by bioluminescence assay (reference value: 332 +/- 46 pg); type: functional
Mycobacterium leprae [14] = experiment: Anti-leprotic activity against rifampicin-susceptible Mycobacterium leprae subcultures at 4 weeks assessed as [3H]thymidine uptake per 5 times 10^7 cells at 0.025 mg/L incubated for 24 hrs (reference value: 1.41 +/- 0.20 pmol); type: functional
Mycobacterium leprae [15] = experiment: Anti-leprotic activity against rifampicin-susceptible Mycobacterium leprae subcultures at 4 weeks assessed as ATP level per 10^7 cells at 0.1 mg/L measured by bioluminescence assay (reference value: 425 +/- 64 pg); type: functional
Mycobacterium leprae [16] = experiment: Anti-leprotic activity against rifampicin-susceptible Mycobacterium leprae subcultures at 4 weeks assessed as [3H]thymidine uptake per 5 times 10^7 cells at 0.05 mg/L incubated for 24 hrs (reference value: 1.41 +/- 0.20 pmol); type: functional
Mycobacterium leprae [17] = experiment: Anti-leprotic activity against rifampicin-susceptible Mycobacterium leprae primary cultures at 4 weeks assessed as [3H]thymidine uptake per 5 times 10^7 cells at 0.2 mg/L incubated for 24 hrs (reference value: 1.05 +/- 0.16 pmol); type: functional
Mycobacterium leprae [18] = experiment: Anti-leprotic activity against rifampicin-susceptible Mycobacterium leprae primary cultures at 4 weeks assessed as ATP level per 10^7 cells at 0.05 mg/L measured by bioluminescence assay (reference value: 332 +/- 46 pg); type: functional
Mycobacterium leprae [19] = experiment: Anti-leprotic activity against rifampicin-susceptible Mycobacterium leprae subcultures at 4 weeks assessed as ATP level per 10^7 cells at 0.025 mg/L measured by bioluminescence assay (reference value: 425 +/- 64 pg); type: functional
[20] = Cytotoxicity against LPS-induced human monocytes assessed as cell viability at 5 uM by tryphan blue staining based assay relative to control; design: species or system Monocyte; details: read-out: Activity
[21] = Cytotoxicity against LPS-induced human monocytes assessed as cell viability at 50 uM by tryphan blue staining based assay relative to control; design: species or system Monocyte; details: read-out: Activity
Monocyte [22] = experiment: Antiinflammatory activity in human monocytes assessed as inhibition of LPS-induced TNFaplha production at 5 uM preincubated for 15 mins followed by LPS addition and measured after 4 hrs by ELISA relative to control; type: functional
[23] = Cytotoxicity against LPS-induced human monocytes assessed as cell viability at 0.5 uM by tryphan blue staining based assay relative to control; design: species or system Monocyte; details: read-out: Activity
[24] = Cytotoxicity against LPS-induced human monocytes assessed as cell viability at 25 uM by tryphan blue staining based assay relative to control; design: species or system Monocyte; details: read-out: Activity
Monocyte [25] = experiment: Antiinflammatory activity in human monocytes assessed as inhibition of LPS-induced TNFaplha production at 25 uM preincubated for 15 mins followed by LPS addition and measured after 4 hrs by ELISA relative to control; type: functional
Monocyte [26] = experiment: Antiinflammatory activity in human monocytes assessed as inhibition of LPS-induced TNFaplha production at 50 uM preincubated for 15 mins followed by LPS addition and measured after 4 hrs by ELISA relative to control; type: functional
Monocyte [27] = experiment: Antiinflammatory activity in human monocytes assessed as inhibition of LPS-induced TNFaplha production at 0.5 uM preincubated for 15 mins followed by LPS addition and measured after 4 hrs by ELISA relative to control; type: functional
[28] = system: Mycobacterium tuberculosis; experiment: Antitubercular activity against Mycobacterium tuberculosis H37Rv ATCC 27294 assessed as growth inhibition at 6.25 ug/ml by microplate alamar blue assay relative to control; type: functional
[29] = system: Mycobacterium tuberculosis; experiment: Antitubercular activity against Mycobacterium tuberculosis H37Rv ATCC 27294 assessed as inhibition of [3H]-thymidine incorporation relative to control; type: functional
[30] = system: Mycobacterium tuberculosis; experiment: Antitubercular activity against Mycobacterium tuberculosis H37Rv ATCC 27294 assessed as inhibition of [3H]-thymidine incorporation; type: functional, organism-based
[31] = system: Mycobacterium tuberculosis; experiment: Antimycobacterial activity against Mycobacterium tuberculosis H37Rv infected in CF-1 mouse assessed as change in survival time at 3 mg/kg administrated daily for 14 days with food relative to control; type: functional
[32] = system: Mycobacterium tuberculosis; experiment: Antimycobacterial activity against Mycobacterium tuberculosis H37Rv infected in CF-1 mouse assessed as change in survival time at 11 mg/kg administrated daily for 14 days with food relative to control; type: functional
[33] = system: Mycobacterium tuberculosis; experiment: Antimycobacterial activity against Mycobacterium tuberculosis H37Rv infected in CF-1 mouse assessed as change in survival time at 5 mg/kg administrated daily for 14 days with food relative to control; type: functional

OO [HYDROGEN PEROXIDE]
concentration at 168 h [1]: 42 ng/mL
concentration at 336 h [2]: 50 ng/mL
concentration at 672 h [3]: 55 ng/mL

CO[C@H]1/C=C/O[C@@]2(C)Oc3c(C)c(O)c4c(=O)c(c5oc6cc(N7CCN(CC(C)C)CC7)cc(O)c6nc-5c4c3C2=O)NC(=O)/C(C)=C\C=C\[C@H](C)[C@H](O)[C@@H](C)[C@@H](O)[C@@H](C)[C@H](OC(C)=O)[C@@H]1C [RIFALAZIL]
Activity (Mycobacterium leprae [4]): 0 pmol
Activity (Mycobacterium leprae [5]): 0 pmol
Activity (Mycobacterium leprae [6]): 0 pmol
Activity (Mycobacterium leprae [7]): 0.72 pmol
Activity (Mycobacterium leprae [8]): 0 pg
Activity (Mycobacterium leprae [9]): 0 pg
Activity (Mycobacterium leprae [10]): 227 pg
Activity (Mycobacterium leprae [11]): 0 pmol
Activity (Mycobacterium leprae [12]): 0 pg
Activity (Mycobacterium leprae [13]): 0 pg
Activity (Mycobacterium leprae [14]): 0.73 pmol
Activity (Mycobacterium leprae [15]): 0 pg
Activity (Mycobacterium leprae [16]): 0 pmol
Activity (Mycobacterium leprae [17]): 0 pmol
Activity (Mycobacterium leprae [18]): 0 pg
Activity (Mycobacterium leprae [19]): 211 pg

O=C1c2ccccc2C(=O)N1c1ccc(F)c(F)c1
viability at 5 µM [20]: 95%
viability at 50 µM [21]: 78%
inhibition at 5 µM (Monocyte [22]): 84%
viability at 0.5 µM [23]: 92%
viability at 25 µM [24]: 88%
inhibition at 25 µM (Monocyte [25]): 100%
inhibition at 50 µM (Monocyte [26]): 100%
inhibition at 0.5 µM (Monocyte [27]): < 10%

CCC(C)N1CCN(c2cc(O)c3nc4c5c6c7c(C)c(O)c5c(=O)c(c-4oc3c2)NC(=O)/C(C)=C\C=C\[C@H](C)[C@H](O)[C@@H](C)[C@@H](O)[C@@H](C)[C@H](OC(C)=O)[C@H](C)[C@@H](OC)/C=C/O[C@@](C)(O7)C6=O)CC1 (stereo in doubt; form 2)
Activity (Mycobacterium leprae [4]): 0.77 pmol
Activity (Mycobacterium leprae [5]): 0 pmol
Activity (Mycobacterium leprae [6]): 0.76 pmol
Activity (Mycobacterium leprae [7]): 0.298 pmol
Activity (Mycobacterium leprae [8]): 221 pg
Activity (Mycobacterium leprae [9]): 0 pg
Activity (Mycobacterium leprae [10]): 298 pg
Activity (Mycobacterium leprae [11]): 0 pmol
Activity (Mycobacterium leprae [12]): 0 pg
Activity (Mycobacterium leprae [13]): 0 pg
Activity (Mycobacterium leprae [14]): 0 pmol
Activity (Mycobacterium leprae [15]): 0 pg
Activity (Mycobacterium leprae [16]): 1.28 pmol
Activity (Mycobacterium leprae [17]): 0 pmol
Activity (Mycobacterium leprae [18]): 233 pg
Activity (Mycobacterium leprae [19]): 363 pg

OC[C@H]1O[C@@H](n2cnc3c(-c4ccco4)nc(Cl)nc32)[C@H](O)[C@@H]1O
inhibition at 6.25 µg/mL [28]: 7%
inhibition (INH) [29]: 100%
IC50 [30]: 3.4 µg/mL (≈ 9.64 µM)

OC[C@H]1O[C@@H](n2cnc3c(-c4ccccc4)ncnc32)[C@H](O)[C@@H]1O
inhibition at 6.25 µg/mL [28]: 14%
inhibition (INH) [29]: 99%
IC50 [30]: 0.4 µg/mL (≈ 1.22 µM)

Brc1ccc(/N=N/c2ccc(NCCCN3CCCCC3)c3c2CCCC3)cc1
MST [31]: 11 days
MST [32]: 38 days
MST [33]: 19 days
